In BindingDB's records for doi:10.1021/jm000048n (Washington State University, 2000):

Key:
Cytochrome P450 2C9 = Cytochrome P450 2C9 (Homo sapiens, UniProt P11712); assay: (§1) Binding affinity was measured on Cytochrome P450 2C9
[1] = target: {'v': 'CYP2C9', 'o': 'p', 'q': 'Cytochrome P450 2C9 (single_protein)'} (Homo sapiens, UniProt P11712); assay: as §1
Sequence of {'v': 'CYP2C9', 'o': 'p', 'q': 'Cytochrome P450 2C9 (single_protein)'} (P11712 whole entry): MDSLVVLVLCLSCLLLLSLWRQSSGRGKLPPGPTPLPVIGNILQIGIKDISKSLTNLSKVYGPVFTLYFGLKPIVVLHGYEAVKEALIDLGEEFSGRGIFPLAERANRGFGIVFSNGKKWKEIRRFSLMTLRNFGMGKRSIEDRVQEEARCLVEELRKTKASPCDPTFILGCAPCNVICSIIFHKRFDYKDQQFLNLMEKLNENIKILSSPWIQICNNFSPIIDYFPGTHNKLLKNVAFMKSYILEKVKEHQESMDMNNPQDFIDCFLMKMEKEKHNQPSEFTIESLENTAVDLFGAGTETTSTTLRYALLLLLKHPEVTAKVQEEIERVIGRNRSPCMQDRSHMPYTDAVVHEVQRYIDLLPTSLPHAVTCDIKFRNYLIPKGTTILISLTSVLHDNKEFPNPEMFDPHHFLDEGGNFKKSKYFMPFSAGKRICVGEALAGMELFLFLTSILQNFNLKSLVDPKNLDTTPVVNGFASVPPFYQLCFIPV

Sequence of Cytochrome P450 2C9 (P11712 whole entry): as above

**Q.** For CC[C@H](c1ccccc1)c1c(O)c2ccccc2oc1=O, which Ki (Cytochrome P450 2C9) is on record?
**A.** 500 nM

**Q.** And the Ki [1]?
**A.** 500 nM
